*1 amine or outer side, *2 acyl side, *3 side chain or, on linkers, in order; H or OH if unused. Where a SMILES comes first, the peptide text is derived from it. Bridges are numbered along the chain shown (N, C = ends). Roman numbers before positions name the chains, in order. [ ]: non-standard residue; d: D form. Actinocin(1to9) = Cc1c2oc3c(C)ccc(C(=O)[*:2])c3nc-2c(C(=O)[*:1])c(N)c1=O; NMeV = CN[C@H](C(=O)O)C(C)C; Sar = CNCC(=O)O
Experiments:
NUGC [1] = test: Cytotoxicity against human NUGC cells assessed as cell growth at 10 uM after 3 to 24 hrs by MTS assay; type: functional; settings: read-out: Activity
NUGC [2] = test: Cytotoxicity against human NUGC cells assessed as cell growth at 5 uM after 3 to 24 hrs by MTS assay; type: functional; settings: read-out: Activity

Row | Compound | growth at 10 µM (NUGC [1]) | growth at 5 µM (NUGC [2])
1 | C=C(C)C(O)CC[C@]1(C)/C=C/[C@@H](OC(=O)C=C(C)C)[C@](C)(O)/C=C/C(=O)/C(CO)=C\C1 (stereo not given in full) [VIBSANOL B] | > 50% | –
2 | CC(C)=CC(=O)O[C@@H]1/C=C/[C@@](C)(C/C=C/C(C)(C)O)C/C=C(/CO)C(=O)/C=C/[C@@]1(C)O [VABSANOL A] | 15% | –
3 | C=C(C)[C@@H]1CC[C@]2(C(=O)O)CC[C@]3(C(=O)O)[C@H](CC[C@@H]4[C@@]5(C)CCC(=O)C(C)(C)[C@@H]5[C@H](O)C[C@]43C)[C@@H]12 | 20% | –
4 | Cc1c2oc3c(C)ccc(C(=O)N[C@@H]4C(=O)N[C@H](C(C)C)C(=O)N5CCC[C@H]5C(=O)N(C)CC(=O)N(C)[C@@H](C(C)C)C(=O)O[C@@H]4C)c3nc-2c(C(=O)N[C@@H]2C(=O)N[C@H](C(C)C)C(=O)N3CCC[C@H]3C(=O)N(C)CC(=O)N(C)[C@@H](C(C)C)C(=O)O[C@@H]2C)c(N)c1=O [DACTINOMYCIN] (I: T[dV]P[Sar][NMeV] / II: T[dV]P[Sar][NMeV]; ester I:1-I:C, II:1-II:C; linker I:N-II:N via Actinocin(1to9)) | – | 0%
5 | C=C(C)[C@@H]1CC[C@]2(C(=O)O)CC[C@]3(C(=O)O)[C@H](CC[C@@H]4[C@@]5(C)CCC(=O)C(C)(C)[C@@H]5[C@@H](O)C[C@]43C)[C@@H]12 | > 50% | –

— ChEMBL document CHEMBL1150120, “New vibsane diterpenes and lupane triterpenes from Viburnum odoratissimum” (2002)
